According to ChEMBL document CHEMBL1201862, “PubChem BioAssay data set” (2004):
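Following 48 hours of exposure in 96-well plates, responses at five concentrations were used to interpolate endpoints linearly. GI50 marks 50% less growth.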 The source made the active and inactive calls. Rule as the data show it: active = GI50 up to about 1.1 µM and inactive = higher.

Assays:
Experiment in all cases: NCI anticancer screen, dose series, 48 h
NCI-H460 = system: NCI-H460
NCI-H23 = system: NCI-H23
SF-295 = system: SF-295
OVCAR-8 = system: OVCAR-8
SW-620 = system: SW-620
786-0 = system: 786-0
OVCAR-4 = system: OVCAR-4
SK-OV-3 = system: SK-OV-3
DU-145 = system: DU-145
HOP-62 = system: HOP-62
SF-539 = system: SF-539
UACC-257 = system: UACC-257
LOX IMVI = system: LOX IMVI
CCRF-CEM = system: CCRF-CEM
NCI/ADR-RES = system: NCI/ADR-RES
NCI-H226 = system: NCI-H226
TK-10 = system: TK-10
A498 = system: A498
IGROV-1 = system: IGROV-1
RPMI-8226 = system: RPMI-8226
PC-3 = system: PC-3
U-251 = system: U-251
OVCAR-3 = system: OVCAR-3
SNB-19 = system: SNB-19
UO-31 = system: UO-31
SF-268 = system: SF-268
SK-MEL-28 = system: SK-MEL-28
ACHN = system: ACHN
MDA-MB-231 = system: MDA-MB-231
NCI-H522 = system: NCI-H522
KM12 = system: KM12
MDA-N = system: MDA-N
HL-60 = system: HL-60
T47D = system: T47D
SR = system: SR
A549 = system: A549
HCT-15 = system: HCT-15
K562 = system: K562
Hs-578T = system: Hs-578T
HCT-116 = system: HCT-116
UACC-62 = system: UACC-62
RXF 393 = system: RXF 393
Malme-3M = system: Malme-3M
COLO 205 = system: COLO 205
MCF7 = system: MCF7
BT-549 = system: BT-549
HOP-92 = system: HOP-92
SK-MEL-2 = system: SK-MEL-2
SN12C = system: SN12C
SNB-75 = system: SNB-75
MOLT-4 = system: MOLT-4
EKVX = system: EKVX
M14 = system: M14
MDA-MB-435 = system: MDA-MB-435
CAKI-1 = system: CAKI-1
HT-29 = system: HT-29
OVCAR-5 = system: OVCAR-5
SK-MEL-5 = system: SK-MEL-5
HCC 2998 = system: HCC 2998

SMILES: C=C1[C@@H](O)C[C@@]23CC[C@@H]4[C@@]5(C)CC[C@@H](OC(C)=O)C(C)(C)[C@@H]5C[C@@H](OC5OC(COC(C)=O)C(O)C(O)C5O)[C@@]4(C)C2=CC[C@H]3[C@H]1C (some centres not stated)
- GI50 (NCI-H460): 4.13 µM (inactive)
- GI50 (NCI-H23): 10.7 µM (inactive)
- GI50 (SF-295): 4.06 µM (inactive)
- GI50 (OVCAR-8): 7.13 µM (inactive)
- GI50 (SW-620): 6.44 µM (inactive)
- GI50 (786-0): 6.14 µM (inactive)
- GI50 (OVCAR-4): 5.57 µM (inactive)
- GI50 (SK-OV-3): 13.1 µM (inactive)
- GI50 (DU-145): 10.5 µM (inactive)
- GI50 (HOP-62): 11.7 µM (inactive)
- GI50 (SF-539): 11.8 µM (inactive)
- GI50 (UACC-257): 11.6 µM (inactive)
- GI50 (LOX IMVI): 3.01 µM (inactive)
- GI50 (CCRF-CEM): 2.97 µM (inactive)
- GI50 (NCI/ADR-RES): 17.5 µM (inactive)
- GI50 (NCI-H226): 4.43 µM (inactive)
- GI50 (TK-10): 8.41 µM (inactive)
- GI50 (A498): 9.73 µM (inactive)
- GI50 (IGROV-1): 3.8 µM (inactive)
- GI50 (RPMI-8226): 2.84 µM (inactive)
- GI50 (PC-3): 3.66 µM (inactive)
- GI50 (U-251): 3.03 µM (inactive)
- GI50 (OVCAR-3): 3.72 µM (inactive)
- GI50 (SNB-19): 4.93 µM (inactive)
- GI50 (UO-31): 14.1 µM (inactive)
- GI50 (SF-268): 4.82 µM (inactive)
- GI50 (SK-MEL-28): 7.35 µM (inactive)
- GI50 (ACHN): 9.12 µM (inactive)
- GI50 (MDA-MB-231): 5.47 µM (inactive)
- GI50 (NCI-H522): 5.35 µM (inactive)
- GI50 (KM12): 2.1 µM (inactive)
- GI50 (MDA-N): 5.16 µM (inactive)
- GI50 (HL-60): 2.27 µM (inactive)
- GI50 (T47D): 5.09 µM (inactive)
- GI50 (SR): 2.33 µM (inactive)
- GI50 (A549): 4.49 µM (inactive)
- GI50 (HCT-15): 12.4 µM
- GI50 (K562): 2.99 µM (inactive)
- GI50 (Hs-578T): 5.66 µM (inactive)
- GI50 (HCT-116): 3.43 µM (inactive)
- GI50 (UACC-62): 6.07 µM (inactive)
- GI50 (RXF 393): 4.27 µM (inactive)
- GI50 (Malme-3M): 9.48 µM (inactive)
- GI50 (COLO 205): 2 µM (inactive)
- GI50 (MCF7): 2.14 µM (inactive)
- GI50 (BT-549): 8.17 µM (inactive)
- GI50 (HOP-92): 7.38 µM (inactive)
- GI50 (SK-MEL-2): 2.34 µM (inactive)
- GI50 (SN12C): 7.98 µM (inactive)
- GI50 (SNB-75): 3.96 µM (inactive)
- GI50 (MOLT-4): 2.5 µM (inactive)
- GI50 (EKVX): 10.2 µM (inactive)
- GI50 (M14): 4.49 µM (inactive)
- GI50 (MDA-MB-435): 4.51 µM (inactive)
- GI50 (CAKI-1): 13.1 µM (inactive)
- GI50 (HT-29): 2.1 µM (inactive)
- GI50 (OVCAR-5): 2.22 µM (inactive)
- GI50 (SK-MEL-5): 4 µM (inactive)
- GI50 (HCC 2998): 1.75 µM (inactive)

SMILES: O=C1c2cccnc2-c2nccc3c2c1nc1cc(Br)ccc13
- GI50 (NCI-H460): 0.138 µM (active)
- GI50 (NCI-H23): 0.0955 µM (active)
- GI50 (SF-295): 0.227 µM (active)
- GI50 (OVCAR-8): 0.0659 µM (active)
- GI50 (SW-620): < 0.0264 µM (active)
- GI50 (786-0): 0.0713 µM (active)
- GI50 (OVCAR-4): 0.148 µM (active)
- GI50 (SK-OV-3): 0.239 µM (active)
- GI50 (DU-145): 0.121 µM (active)
- GI50 (HOP-62): 0.155 µM (active)
- GI50 (SF-539): 0.279 µM (active)
- GI50 (UACC-257): 0.226 µM (active)
- GI50 (LOX IMVI): 0.0533 µM (active)
- GI50 (CCRF-CEM): 0.0989 µM (active)
- GI50 (NCI/ADR-RES): 0.0375 µM (active)
- GI50 (NCI-H226): 0.216 µM (active)
- GI50 (TK-10): 0.979 µM (active)
- GI50 (A498): 0.0196 µM (active)
- GI50 (IGROV-1): 0.14 µM (active)
- GI50 (RPMI-8226): 0.0748 µM (active)
- GI50 (PC-3): 0.275 µM (active)
- GI50 (U-251): 0.0843 µM (active)
- GI50 (OVCAR-3): 0.124 µM (active)
- GI50 (SNB-19): 0.27 µM (active)
- GI50 (UO-31): 0.221 µM (active)
- GI50 (SF-268): 0.134 µM (active)
- GI50 (SK-MEL-28): 0.0843 µM (active)
- GI50 (ACHN): 0.208 µM (active)
- GI50 (MDA-MB-231): 0.103 µM (active)
- GI50 (NCI-H522): 0.115 µM (active)
- GI50 (KM12): 0.147 µM (active)
- GI50 (MDA-N): 0.225 µM (active)
- GI50 (HL-60): 0.0405 µM (active)
- GI50 (T47D): 0.0883 µM (active)
- GI50 (SR): 0.0221 µM (active)
- GI50 (A549): 0.122 µM (active)
- GI50 (HCT-15): 0.0721 µM
- GI50 (K562): 0.033 µM (active)
- GI50 (Hs-578T): 0.204 µM (active)
- GI50 (HCT-116): 0.025 µM (active)
- GI50 (UACC-62): 0.178 µM (active)
- GI50 (RXF 393): 0.0946 µM (active)
- GI50 (Malme-3M): 0.108 µM (active)
- GI50 (COLO 205): 0.798 µM (active)
- GI50 (MCF7): < 0.0366 µM (active)
- GI50 (BT-549): 0.25 µM (active)
- GI50 (HOP-92): 0.438 µM (active)
- GI50 (SK-MEL-2): 0.165 µM (active)
- GI50 (SN12C): 0.101 µM (active)
- GI50 (SNB-75): 0.243 µM (active)
- GI50 (MOLT-4): 0.0955 µM (active)
- GI50 (EKVX): 1.15 µM (inactive)
- GI50 (M14): 0.0553 µM (active)
- GI50 (MDA-MB-435): 0.198 µM (active)
- GI50 (CAKI-1): 0.218 µM (active)
- GI50 (HT-29): 0.989 µM (active)
- GI50 (OVCAR-5): 0.24 µM (active)
- GI50 (SK-MEL-5): 0.132 µM (active)
- GI50 (HCC 2998): 0.406 µM (active)

SMILES: CC1=NN(C(=O)CC(=O)Nc2ccccc2C)C(=O)C1/N=N\c1ccc(S(=O)(=O)c2ccc(/N=N/C3C(=O)N(C(=O)CC(=O)Nc4ccccc4C)N=C3C)cc2)cc1 (configuration not stated)
- GI50 (NCI-H460): > 100 µM (inactive)
- GI50 (NCI-H23): > 100 µM (inactive)
- GI50 (SF-295): > 100 µM (inactive)
- GI50 (OVCAR-8): 74.6 µM (inactive)
- GI50 (SW-620): > 10 µM (inactive)
- GI50 (786-0): > 100 µM (inactive)
- GI50 (OVCAR-4): > 100 µM (inactive)
- GI50 (SK-OV-3): > 100 µM (inactive)
- GI50 (DU-145): > 100 µM (inactive)
- GI50 (HOP-62): > 100 µM (inactive)
- GI50 (SF-539): > 100 µM (inactive)
- GI50 (UACC-257): > 100 µM (inactive)
- GI50 (LOX IMVI): > 100 µM (inactive)
- GI50 (CCRF-CEM): > 100 µM (inactive)
- GI50 (NCI/ADR-RES): > 100 µM (inactive)
- GI50 (NCI-H226): > 100 µM (inactive)
- GI50 (TK-10): > 100 µM (inactive)
- GI50 (A498): > 100 µM (inactive)
- GI50 (IGROV-1): 68.9 µM (inactive)
- GI50 (RPMI-8226): > 100 µM (inactive)
- GI50 (PC-3): > 100 µM (inactive)
- GI50 (U-251): 67.9 µM (inactive)
- GI50 (OVCAR-3): > 100 µM (inactive)
- GI50 (SNB-19): > 100 µM (inactive)
- GI50 (UO-31): > 100 µM (inactive)
- GI50 (SF-268): > 100 µM (inactive)
- GI50 (SK-MEL-28): > 100 µM (inactive)
- GI50 (ACHN): > 100 µM (inactive)
- GI50 (MDA-MB-231): > 100 µM (inactive)
- GI50 (NCI-H522): 46 µM (inactive)
- GI50 (KM12): > 100 µM (inactive)
- GI50 (MDA-N): > 100 µM (inactive)
- GI50 (HL-60): > 100 µM (inactive)
- GI50 (T47D): > 100 µM (inactive)
- GI50 (SR): > 100 µM (inactive)
- GI50 (A549): > 100 µM (inactive)
- GI50 (HCT-15): > 100 µM
- GI50 (K562): > 100 µM (inactive)
- GI50 (Hs-578T): 85.9 µM (inactive)
- GI50 (HCT-116): > 100 µM (inactive)
- GI50 (UACC-62): > 100 µM (inactive)
- GI50 (RXF 393): > 100 µM (inactive)
- GI50 (Malme-3M): > 100 µM (inactive)
- GI50 (COLO 205): > 100 µM (inactive)
- GI50 (MCF7): > 100 µM (inactive)
- GI50 (BT-549): > 100 µM (inactive)
- GI50 (HOP-92): > 100 µM (inactive)
- GI50 (SK-MEL-2): > 100 µM (inactive)
- GI50 (SN12C): > 100 µM (inactive)
- GI50 (SNB-75): > 100 µM (inactive)
- GI50 (MOLT-4): > 100 µM (inactive)
- GI50 (EKVX): > 100 µM (inactive)
- GI50 (M14): > 100 µM (inactive)
- GI50 (MDA-MB-435): > 100 µM (inactive)
- GI50 (CAKI-1): > 100 µM (inactive)
- GI50 (HT-29): > 100 µM (inactive)
- GI50 (OVCAR-5): > 100 µM (inactive)
- GI50 (SK-MEL-5): 62.2 µM (inactive)
- GI50 (HCC 2998): > 100 µM (inactive)
